Test results: PMC5312529 (BMC Cancer, 2017)
Where two headings read alike, the source gives them in different places. Marks after values point to notes of the source that are not given here. One block for each compound: values may come before it.

What was measured:
[1] = system: patients with advanced solid tumors; conditions: cited from earlier work
[2] = system: Stage II-IV locally advanced or metastatic pancreatic cancer; experiment: Phase II randomized trial: overall survival, PFS, response (RECIST v 1.1); format: in vivo, human
Source text: Adult patients who had given informed consent had adequate hematological, liver, and renal functions; histological or cytological evidence of a diagnosis of Stage II or III adenocarcinoma of the pancreas not amenable to resection with curative intent or Stage IV disease; and an Eastern Cooperative Oncology Group performance status (ECOG PS) 0–2. Patients with previous radical surgery for pancreatic cancer were eligible after progression was documented.
(§1) Prior to enrollment, the study protocol, patient informed consent, and any other written study documentation were approved by an ethics committee. This trial was conducted in accordance with the Declaration of Helsinki and the Good Clinical Practice Guidelines of the International Conference on Harmonization. Phase II of this open-label, multicenter, randomized, 2-arm, Phase I/II trial was conducted in patients with locally advanced or metastatic pancreatic cancer. […] Patients continued on treatment until disease progression, unacceptable toxicity, or patient unwillingness to participate.
In addition to the Bayesian model, frequentist analysis of OS was also performed as a sensitivity analysis. The definition of secondary efficacy variables was consistent with standard conventions per RECIST (v 1.1).

[3] = system: patients with locally advanced or metastatic pancreatic cancer; experiment: Safety: treatment-emergent adverse events graded by CTCAE v 3.0; format: in vivo, human
Protocol: as §1
All patients who received at least one dose of study drug were evaluated for safety and toxicity. AE severity was graded using the Common Terminology Criteria for AEs (CTCAE) v 3.0.

[4] = system: carbohydrate antigen 19–9 (CA19-9); experiment: CA19-9 biomarker response; format: in vivo, human; conditions: patients with baseline CA19-9 > upper limit of normal
Source text: Exploratory analyses included: change from baseline in tumor size and carbohydrate antigen 19–9 (CA19-9) levels, and changes in QTcF from electrocardiograms (ECG) obtained at baseline and after LY2603618 administration on days 2 and 16 during cycle one. […] A sample for CA–19–9 analysis was collected at the start of each cycle.

genomic DNA = experiment: Nucleoside analog DNA incorporation assay (gemcitabine/dFdC in genomic DNA); format: in vivo, human
[5] = system: patients with locally advanced or metastatic pancreatic cancer; experiment: Patient disposition and treatment exposure; format: in vivo
Protocol: as §1
The first patient was enrolled on 26 February 2009.

[6] = system: metastatic pancreatic adenocarcinoma; set-up: method as in PMID 21969517; conditions: MPACT; cited from earlier work
[7] = LY2603618 plasma pharmacokinetics, noncompartmental analysis; format: in vivo, human; conditions: for Cmax / AUC(0-inf) / AUC(0-t) / clearance / Vd / half-life: 230 mg; for Cmax: read-out: Cmax, Geometric Mean (CV%); for AUC(0-inf): read-out: AUC(0-∞), Geometric Mean (CV%); for AUC(0-t): read-out: AUC(0–24), Geometric Mean (CV%); for clearance: read-out: CL, Geometric Mean (CV%) (converted); for Vd: read-out: Vss, Geometric Mean (CV%); for half-life: read-out: t1/2, Geometric Mean (CV%) (converted)
Protocol: LY2603618 concentrations were quantified using a validated high-pressure liquid chromatography/mass spectrometry/mass spectrometry method. Whole blood samples were collected following the LY2603618 infusion on days 2 and 16 of cycle 1 before the start (<10 min) of infusion; immediately prior to the end of infusion (<5 min); and at 1, 3, and 24 h after the end of infusion. LY2603618 PK parameters were computed from the plasma concentration versus time data by standard noncompartmental analyses (Phoenix WinNonlin version 6.3, Pharsight, A Certara Company®; Princeton, NJ, USA).

[8] = system: Fridericia’s heart rate-corrected QT interval (QTcF); experiment: Exploratory QTcF assessment from electrocardiograms; format: in vivo, human; conditions: ECG at baseline and after LY2603618 on days 2 and 16 of cycle one
Source text: Exploratory analyses included: change from baseline in tumor size and carbohydrate antigen 19–9 (CA19-9) levels, and changes in QTcF from electrocardiograms (ECG) obtained at baseline and after LY2603618 administration on days 2 and 16 during cycle one.

HT-29 xenograft models = system: HT-29 xenograft models; set-up: method as in data on file; conditions: nonclinical HT-29 xenograft models; ref data on file; cited from earlier work
[9] = system: patients with solid tumors; set-up: method as in PMID 27598338; conditions: in combination with gemcitabine; cited from earlier work
[10] = study drug-related TEAE, any grade
[11] = 230 mg LY2603618, Cycle 1 Day 2
[12] = 230 mg LY2603618, Cycle 1 Day 16
[13] = 230 mg LY2603618, days 2 and 16 of cycle 1
[14] = human, plasma, intravenous, 230 mg LY2603618, Cycle 1 Day 2
[15] = human, plasma, intravenous, 230 mg LY2603618, Cycle 1 Day 16

SMILES: NC(=O)Nc1cc(-c2cccc(F)c2)sc1C(=O)N[C@H]1CCCNC1 [AZD7762]
- Toxicity observed in Phase 1 study [1]: unpredictable cardiac toxicity was observed

SMILES: Nc1ccn([C@@H]2O[C@H](CO)[C@@H](O)C2(F)F)c(=O)n1 [Gemcitabine, gemcitabine]
- Median overall survival (OS) ([2]; ITT population, frequentist analysis): 8.3 months
- Best Overall Response: CR ([2]; in vivo): 0 n (%; 95% CI)
- Best Overall Response: PR ([2]; in vivo): 3 (8.8%; 1.9–23.7) n (%; 95% CI)
- Best Overall Response: SD ([2]; in vivo): 19 (55.9%; 37.9–72.8) n (%; 95% CI)
- Clinical Benefit Rate ([2]; in vivo): 22 (64.7%; 46.5–80.3) n (%; 95% CI)
- Clinical benefit rate ([2]; in vivo): 64.7%
- Duration of response, Median (range) ([2]; in vivo): 6.0 (3.7–6.8) mos.
- Percentage of patients with partial response (PR) ([2]; in vivo): 8.8%
- Events leading to discontinuation that were possibly related to treatment ([3]; among patients who discontinued due to AEs): four
- Study drug-related treatment-emergent AEs (TEAEs), patients ([3]; any grade): 91.2%
- Patients with ≥1 TEAE (study drug-related) ([3]; any grade, safety population): 31 (91.2) n (%)
- Patients who discontinued the study due to AEs ([3]; in vivo): 6 n
- Serious adverse events (SAE) related to study treatment, patients ([3]; in vivo): 23.5%
- Alopecia [3, 10]: 4 (11.8) n (%)
- Anemia [3, 10]: 9 (26.5) n (%)
- Asthenia [3, 10]: 5 (14.7) n (%)
- Constipation [3, 10]: 3 (8.8) n (%)
- Decreased appetite [3, 10]: 3 (8.8) n (%)
- Diarrhea [3, 10]: 3 (8.8) n (%)
- Fatigue [3, 10]: 10 (29.4) n (%)
- Leukopenia [3, 10]: 5 (14.7) n (%)
- Nausea [3, 10]: 8 (23.5) n (%)
- Neutropenia [3, 10]: 9 (26.5) n (%)
- Oedema peripheral [3, 10]: 2 (5.9) n (%)
- Patients who experienced anemia [3, 10]: 26.5%
- Pyrexia [3, 10]: 5 (14.7) n (%)
- Stomatitis [3, 10]: 1 (2.9) n (%)
- Thrombocytopenia [3, 10]: 14 (41.2) n (%)
- Vomiting [3, 10]: 3 (8.8) n (%)
- Decreased hemoglobin ([3]; study drug-related, Grade 3): 4 (11.8) n (%)
- Decreased leukocytes ([3]; study drug-related, Grade 3): 1 (2.9) n (%)
- Decreased platelets ([3]; study drug-related, Grade 3): 3 (8.8) n (%)
- Dehydration ([3]; study drug-related, Grade 3): 2 (5.9) n (%)
- Fatigue ([3]; study drug-related, Grade 3): 3 (8.8) n (%)
- Hyponatremia ([3]; study drug-related, Grade 3): 2 (5.9) n (%)
- Patients with ≥1 TEAE ([3]; study drug-related, Grade 3): 19 (55.9) n (%)
- Thrombotic microangiopathy ([3]; study drug-related, Grade 3): 2 (5.9) n (%)
- Decreased hemoglobin ([3]; study drug-related, Grade 4): 0 n (%)
- Decreased leukocytes ([3]; study drug-related, Grade 4): 1 (2.9) n (%)
- Decreased platelets ([3]; study drug-related, Grade 4): 1 (2.9) n (%)
- Dehydration ([3]; study drug-related, Grade 4): 0 n (%)
- Fatigue ([3]; study drug-related, Grade 4): 0 n (%)
- Hyponatremia ([3]; study drug-related, Grade 4): 0 n (%)
- Patients with ≥1 TEAE ([3]; study drug-related, Grade 4): 3 (8.8) n (%)
- Thrombotic microangiopathy ([3]; study drug-related, Grade 4): 0 n (%)
- Patients with >50% reduction from baseline in CA19-9 levels [4]: 64%
- dFdC levels incorporated into DNA over the treatment cycle (genomic DNA; following gemcitabine administration): declining to almost baseline by the end of each treatment cycle
- Study discontinuation due to death ([5]; ITT population): 2.9%
- Study discontinuation due to progressive disease ([5]; ITT population): 61.8%
- Study discontinuation due to AE ([5]; human, in vivo): 17.6%
- Median OS [6]: 6.7 months

- AUC(tlast-∞), Geometric Mean (CV%) [7, 11]: 14.3 (131) ^d %
- Cav,24, Geometric Mean (CV%) [7, 11]: 966 (68) ^d ng/mL
- AUC(tlast-∞), Geometric Mean (CV%) [7, 12]: 12.0 (152) ^e %
- Cav,24, Geometric Mean (CV%) [7, 12]: 987 (60) ^e ng/mL
- tmax, Median (range) [7, 12]: 1.00 (0.88–1.83) h
- Individual PK profiles above the target for AUC(0-∞) (≥21,000 ng hr/mL) [7, 13]: 73%
- Individual PK profiles above the target for Cmax (≥2000 ng/mL) [7, 13]: 87%
- Cmax ([7]; human, plasma, intravenous, 230 mg LY2603618 1-h infusion ~24 h after gemcitabine, Cycle 1 Day 2): 3170 ng/mL
- AUC(0-inf) [7, 14]: 29400 ng·h/mL
- AUC(0-t) [7, 14]: 23200 ng·h/mL
- clearance [7, 14]: 130 mL/min
- Vd [7, 14]: 104 L
- half-life [7, 14]: 9.67 h
- AUC(0-inf) [7, 15]: 29100 ng·h/mL
- AUC(0-t) [7, 15]: 23700 ng·h/mL
- clearance [7, 15]: 131 mL/min
- Cmax [7, 15]: 3410 ng/mL
- Vd [7, 15]: 95.1 L
- half-life [7, 15]: 8.86 h
- Tmax ([7]; human, plasma, intravenous, 230 mg LY2603618, Cycle 1 Day 2, read-out: tmax, Median (range)): 1 h
SMILES: Cc1cnc(NC(=O)Nc2cc(Br)c(C)cc2OC[C@@H]2CNCCO2)cn1 [LY2603618]
- Effect of the addition of LY2603618 on the safety profile of gemcitabine ([3]; in vivo): did not significantly change the safety profile of gemcitabine
- Patients with change in QTcF from baseline >60 msec [8]: no patients
- Patients with change in QTcF from baseline between 30 and 60 msec [8]: Five
- Trends in ECG parameter changes (time-point QTcF assessment) [8]: no clinically significant trends
- Relation of increases in dFdC incorporation into DNA to LY2603618 dose (genomic DNA; in vivo): did not correspond to increasing doses of LY2603618
- Plasma systemic exposure target AUC(0-∞) that correlates with maximal pharmacodynamic effect (HT-29 xenograft models): ≥ 21,000 ng hr/mL
- Plasma systemic exposure target Cmax that correlates with maximal pharmacodynamic effect (HT-29 xenograft models): ≥ 2000 ng/mL
- Recommended Phase II dose [9]: 230 mg
